Source: PubChem BioAssay (NCI)
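A five-concentration, 48-hour dose response in 96-well plates underlies each endpoint, interpolated linearly between surrounding concentrations. Abbreviation: GI50, concentration required for 50% inhibition of growth. At the TGI there is no net growth.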

Legend:
Experiment in all cases: growth of human tumour cells (NCI), 48 h
[1] = system: HCT-116 colon
[2] = system: TK-10 renal
[3] = system: HT29 colon
[4] = system: M14 melanoma
[5] = system: CAKI-1 renal
[6] = system: T-47D breast
[7] = system: LOX IMVI melanoma
[8] = system: NCI-H522 lung
[9] = system: DU-145 prostate
[10] = system: HS 578T breast
[11] = system: SK-MEL-5 melanoma
[12] = system: SF-268 CNS
[13] = system: SK-OV-3 ovarian
[14] = system: PC-3 prostate
[15] = system: MDA-MB-435
[16] = system: SN12C renal
[17] = system: MALME-3M melanoma
[18] = system: A498 renal
[19] = system: OVCAR-3 ovarian
[20] = system: HCT-15 colon
[21] = system: OVCAR-8 ovarian
[22] = system: NCI-H460 lung
[23] = system: EKVX NSCLC
[24] = system: COLO 205 colon
[25] = system: BT-549 breast
[26] = system: HCC-2998 colon
[27] = system: NCI-H226 lung
[28] = system: HOP-92 NSCLC
[29] = system: CCRF-CEM leukemia
[30] = system: IGROV1 ovarian
[31] = system: HOP-62 NSCLC
[32] = system: MOLT-4 leukemia
[33] = system: 786-0 renal
[34] = system: NCI-H23 lung
[35] = system: SK-MEL-2 melanoma
[36] = system: SW-620 colon
[37] = system: UACC-62 melanoma
[38] = system: MDA-MB-231 breast
[39] = system: U251 CNS
[40] = system: OVCAR-4 ovarian
[41] = system: NCI/ADR-RES ovarian
[42] = system: MCF7 breast
[43] = system: HL-60(TB) leukemia
[44] = system: SR leukemia
[45] = system: RPMI-8226 leukemia
[46] = system: SNB-19 CNS
[47] = system: SK-MEL-28 melanoma
[48] = system: UACC-257 melanoma
[49] = system: KM12 colon
[50] = system: UO-31 renal
[51] = system: SF-295 CNS
[52] = system: ACHN renal
[53] = system: A549 NSCLC
[54] = system: OVCAR-5 ovarian

CCCOc1ccc2nc(NC(=O)OC)[nH]c2c1
GI50 [1]: 220 nM | TGI [1]: > 100000 nM | GI50 [2]: > 25500 nM | TGI [2]: > 100000 nM | GI50 [3]: 174 nM | TGI [3]: > 100000 nM | GI50 [4]: 140 nM | TGI [4]: > 100000 nM | GI50 [5]: 290 nM | TGI [5]: > 100000 nM | GI50 [6]: > 100000 nM | TGI [6]: > 100000 nM | GI50 [7]: 778 nM | TGI [7]: > 100000 nM | GI50 [8]: 235 nM | TGI [8]: 2280 nM | GI50 [9]: 466 nM | GI50 [10]: 342 nM | TGI [10]: > 100000 nM | GI50 [11]: 79.6 nM | TGI [11]: 1730 nM | GI50 [12]: 2430 nM | TGI [12]: > 100000 nM | GI50 [13]: 262 nM | GI50 [14]: 269 nM | TGI [14]: > 100000 nM | GI50 [15]: 28.4 nM | TGI [15]: 110 nM | GI50 [16]: 597 nM | TGI [16]: > 100000 nM | GI50 [17]: 2720 nM | TGI [17]: > 100000 nM | GI50 [18]: 162 nM | TGI [18]: 1460 nM | GI50 [19]: 396 nM | TGI [19]: > 100000 nM | GI50 [20]: 130 nM | TGI [20]: > 100000 nM | GI50 [21]: 485 nM | TGI [21]: > 100000 nM | GI50 [22]: 324 nM | TGI [22]: > 100000 nM | GI50 [23]: 535 nM | TGI [23]: > 100000 nM | GI50 [24]: 135 nM | TGI [24]: 505 nM | GI50 [25]: 1060 nM | TGI [25]: > 100000 nM | GI50 [26]: 232 nM | GI50 [27]: 399 nM | GI50 [28]: 180 nM | TGI [28]: > 100000 nM | GI50 [29]: 273 nM | TGI [29]: > 100000 nM | GI50 [30]: 481 nM | TGI [30]: > 100000 nM | GI50 [31]: 417 nM | TGI [31]: > 78800 nM | GI50 [32]: 426 nM | TGI [32]: > 100000 nM | GI50 [33]: 470 nM | TGI [33]: > 100000 nM | GI50 [34]: 340 nM | TGI [34]: > 100000 nM | GI50 [35]: 1190 nM | TGI [35]: > 100000 nM | GI50 [36]: 133 nM | TGI [36]: > 100000 nM | GI50 [37]: 215 nM | TGI [37]: > 100000 nM | GI50 [38]: 399 nM | TGI [38]: > 100000 nM | GI50 [39]: 301 nM | TGI [39]: > 100000 nM | GI50 [40]: 600 nM | TGI [40]: > 100000 nM | GI50 [41]: 244 nM | TGI [41]: > 100000 nM | GI50 [42]: 239 nM | TGI [42]: > 100000 nM | GI50 [43]: 171 nM | TGI [43]: 681 nM | GI50 [44]: 31.9 nM | TGI [44]: > 100000 nM | GI50 [45]: 502 nM | TGI [45]: > 100000 nM | GI50 [46]: 384 nM | TGI [46]: > 100000 nM | GI50 [47]: 285 nM | TGI [47]: > 100000 nM | GI50 [48]: > 100000 nM | TGI [48]: > 100000 nM | GI50 [49]: 97.4 nM | TGI [49]: > 100000 nM | GI50 [50]: 501 nM | TGI [50]: > 100000 nM | GI50 [51]: 215 nM | TGI [51]: > 100000 nM | GI50 [52]: 1200 nM | TGI [52]: > 100000 nM | GI50 [53]: 337 nM | TGI [53]: > 100000 nM | GI50 [54]: 441 nM | TGI [54]: > 100000 nM
